One may read the IC50 as the midpoint of a concentration-inhibition curve.

Assay [1] addresses T1, Cyclic GMP-AMP synthase (Homo sapiens, UniProt Q8N884). The experiment in a line: Inhibition of CGAS in human THP1 cells transfected with interferon stimulatory DNA and measured after 16 hrs by Gaussia luciferase reporter gene assay. Format: cell-based. (A reporter such as luciferase makes a cellular process visible.)
The target in assay [2] is T1, Cyclic GMP-AMP synthase. The assay is described as follows: Inhibition of CGAS in human THP1 cells transfected with mock Sendai virus and measured after 16 hrs by Gaussia luciferase reporter gene assay. Type of assay: cell-based.
In assay [3] the target is T1, Cyclic GMP-AMP synthase. The experiment in a line: Inhibition of recombinant His6-SUMO tagged human CGAS expressed in Escherichia coli BL21/pLys cells incubated for 20 mins by Kinase Glo chemiluminescence assay. In general terms: In Kinase-Glo more light means more ATP remaining.

T1 sequence (Q8N884 whole entry): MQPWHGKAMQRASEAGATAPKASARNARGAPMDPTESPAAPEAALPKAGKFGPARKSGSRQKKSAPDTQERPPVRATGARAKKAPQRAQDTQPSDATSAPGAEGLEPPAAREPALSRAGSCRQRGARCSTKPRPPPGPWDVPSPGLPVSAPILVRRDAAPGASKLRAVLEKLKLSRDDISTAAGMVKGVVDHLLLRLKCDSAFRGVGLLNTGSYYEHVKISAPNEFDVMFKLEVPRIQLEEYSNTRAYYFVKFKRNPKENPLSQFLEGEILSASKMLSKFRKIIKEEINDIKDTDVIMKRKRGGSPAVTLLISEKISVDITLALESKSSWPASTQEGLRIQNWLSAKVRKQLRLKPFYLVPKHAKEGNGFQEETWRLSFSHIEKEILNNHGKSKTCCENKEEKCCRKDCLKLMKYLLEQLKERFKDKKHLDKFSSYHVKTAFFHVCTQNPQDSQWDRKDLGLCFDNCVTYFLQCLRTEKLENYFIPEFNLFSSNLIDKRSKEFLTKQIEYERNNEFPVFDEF

`CN1C(=O)S/C(=C\c2cc(OCc3cn(-c4ccncc4)nn3)c(O)cc2Br)C1=O`: the IC50 at Cyclic GMP-AMP synthase [1] is 2.5 to 10 µM; on Cyclic GMP-AMP synthase [2], at least 10 µM; on Cyclic GMP-AMP synthase [3], at least 10 µM.
`CN1C(=O)S/C(=C\c2cc(OCc3cnc([S+](C)[O-])nc3)c(O)cc2Br)C1=O` (stereo not drawn): the IC50 on Cyclic GMP-AMP synthase [1] is 2.5 to 10 µM; against Cyclic GMP-AMP synthase [2] it was at least 10 µM; at Cyclic GMP-AMP synthase [3], at most 0.5 µM.
For `Nc1ncc(COc2cc(/C=C3\Sc4ncccc4C3=O)c(Br)cc2O)cn1` the same measures were at most 2.5 µM, at least 10 µM and at most 0.5 µM.
Taken in the same sequence, the figures for `O=C1/C(=C/c2cc(OCc3cnc(NCc4cccnc4)nc3)c(O)c(F)c2Br)Sc2ncccc21` were 2.5 to 10 µM, at least 10 µM and at most 0.5 µM.
For `CN1C(=O)S/C(=C\c2cc(O/C=C/c3cnc(N)nc3)c(O)c(F)c2Br)C1=O` the same measures were at most 2.5 µM, at least 10 µM and at most 0.5 µM.
As for `CC1C(=O)S/C(=C\c2cc(OC(C)c3cnc(Cl)nc3)c(O)c(F)c2Br)C1=O` (stereo not drawn), the IC50 against Cyclic GMP-AMP synthase [1] was 2.5 to 10 µM; at Cyclic GMP-AMP synthase [2], 2.5 to 10 µM; at Cyclic GMP-AMP synthase [3], at most 0.5 µM.
Turning to `O=C1/C(=C/c2cc(OCc3cncnc3)c(O)cc2Br)Sc2ncccc21`, the 50% inhibitory concentration (IC50) against Cyclic GMP-AMP synthase [1] is 2.5 to 10 µM; on Cyclic GMP-AMP synthase [2] it was at least 10 µM; on Cyclic GMP-AMP synthase [3], at most 0.5 µM.
Taken in the same sequence, the figures for `O=C1/C(=C/c2cc(OCc3cnc(NCc4ccncc4)nc3)c(O)cc2Br)Sc2ncccc21` were at most 2.5 µM, at least 10 µM and at most 0.5 µM.
For `CNc1ncc(COc2cc(/C=C3\Sc4ncccc4C3=O)c(Br)cc2O)cn1` the same measures were 2.5 to 10 µM, at least 10 µM and at most 0.5 µM.
Taken in the same sequence, the figures for `CNc1ncc(COc2cc(/C=C3\Sc4ncccc4C3=O)c(Br)c(F)c2O)cn1` were 2.5 to 10 µM, at least 10 µM and at most 0.5 µM.
As for `CC1C(=O)S/C(=C\c2cc(OC(C)c3cnc(N)nc3C(F)(F)F)c(O)c(F)c2Br)C1=O` (stereo not drawn), the IC50 against Cyclic GMP-AMP synthase [1] is 2.5 to 10 µM; against Cyclic GMP-AMP synthase [2] it was at least 10 µM; at Cyclic GMP-AMP synthase [3], at most 0.5 µM.
Taken in the same sequence, the figures for `O=C1/C(=C/c2cc(CC(F)(F)F)c(O)cc2Br)Sc2ncccc21` were 2.5 to 10 µM, at least 10 µM and at most 0.5 µM.
Regarding `CN1C(=O)S/C(=C\c2cc(Oc3ccc(N)nc3)c(O)cc2Br)C1=O`, the IC50 is 2.5 to 10 µM on Cyclic GMP-AMP synthase [1], at least 10 µM at Cyclic GMP-AMP synthase [2] and at least 10 µM on Cyclic GMP-AMP synthase [3].
With `CN1C(=O)S/C(=C\c2cc3c(-c4cnc(N)nc4)c[nH]c3c(F)c2Br)C1=O`, the results for the IC50 on Cyclic GMP-AMP synthase [1], at Cyclic GMP-AMP synthase [2] and at Cyclic GMP-AMP synthase [3] were 2.5 to 10 µM, at least 10 µM and at most 0.5 µM, respectively.
Taken in the same sequence, the figures for `CN1C(=O)S/C(=C\c2cc(OCc3cnc(N)nc3)c(Oc3cnc(N)s3)cc2Br)C1=O` were 2.5 to 10 µM, at least 10 µM and 0.5 to 10 µM.
On to `Cc1ncc(COc2cc(/C=C3\Sc4ncccc4C3=O)c(Br)c(F)c2O)cn1`, for which the figures for the half-maximal inhibitory concentration (IC50) at Cyclic GMP-AMP synthase [1], against Cyclic GMP-AMP synthase [2] and on Cyclic GMP-AMP synthase [3] were at most 2.5 µM, at least 10 µM and at most 0.5 µM, respectively.
For `O=C1/C(=C/c2cc(OCc3cnc(NCc4ccccn4)nc3)c(O)c(F)c2Br)Sc2ncccc21` the same measures were at least 10 µM, at least 10 µM and at most 0.5 µM.
For `CC(Oc1cc(/C=C2\SC(=O)N(C)C2=O)c(Br)c(F)c1O)C(O)c1cnc(N)nc1` (stereo not drawn) the same measures were at least 10 µM, at least 10 µM and at most 0.5 µM.
For `CCC(Oc1cc(/C=C2\SC(=O)N(C)C2=O)c(Br)c(F)c1O)c1cnc(N)nc1` (stereo not drawn) the same measures were 2.5 to 10 µM, at least 10 µM and at most 0.5 µM.
Take `O=C1/C(=C/c2cc(OCc3cnc(NCCO)nc3)c(O)cc2Br)Sc2ncccc21`: the 50% inhibitory concentration (IC50) at Cyclic GMP-AMP synthase [1] is at most 2.5 µM; against Cyclic GMP-AMP synthase [2], at least 10 µM; at Cyclic GMP-AMP synthase [3] it was at most 0.5 µM.
Taken in the same sequence, the figures for `COCCNc1ncc(COc2cc(/C=C3\Sc4ncccc4C3=O)c(Br)cc2O)cn1` were 2.5 to 10 µM, at least 10 µM and at most 0.5 µM.
For `C[S+]([O-])c1ncc(COc2cc(/C=C3\Sc4ncccc4C3=O)c(Br)cc2O)cn1` (stereo not drawn) the same measures were at most 2.5 µM, 2.5 to 10 µM and at most 0.5 µM.
For `CN1C(=O)S/C(=C\c2cc3c(Cc4cnc(N)nc4)c[nH]c3c(F)c2Br)C1=O` the same measures were at least 10 µM, at least 10 µM and at most 0.5 µM.
For the compound `[2H]C([2H])(Oc1cc(/C=C2\SC(=O)N(C)C2=O)c(Br)cc1O)c1cnc(N)nc1`, the IC50 at Cyclic GMP-AMP synthase [1] was at most 2.5 µM; on Cyclic GMP-AMP synthase [2] it was at least 10 µM; on Cyclic GMP-AMP synthase [3], at most 0.5 µM.
Taken in the same sequence, the figures for `CN1C(=O)S/C(=C\c2cc(OCCc3cnc(N)nc3)c(O)c(F)c2Br)C1=O` were at most 2.5 µM, at least 10 µM and at most 0.5 µM.
For `C[S+]([O-])c1ncc(COc2cc(/C=C3\Sc4ncccc4C3=O)c(Br)c(F)c2O)cn1` (stereo not drawn) the same measures were 2.5 to 10 µM, at least 10 µM and 0.5 to 10 µM.

The values above are taken from ChEMBL document CHEMBL4418308, “cGAS ANTAGONIST COMPOUNDS” (2017).
